Test results reported in US8076343B2, “Benzimidazoles useful as inhibitors of protein kinases” (Vertex Pharmaceuticals Incorporated, priority 2005, dated 2011).

melting point: 87 to 88 °C
SMILES: Nc1nc2ccccc2n1-c1cc(NC2CCCNC2)ncn1 (stereo not shown) [Compound 3]
